pIC50: −log10 of the molar value.
Tests used:
J774 macrophages = test: Resazurin Macrophage J774 Viability Assay; format: cell-based; settings: Mus musculus, 6 point concentration range 10 μM to 10 nM, n = 3 replicates, mean of 2 independent experiments, 72 hour incubation, read-out: IC50 (1)
Method: Potency was assessed using a viability assay based on the survival of the J774 macrophage cell line. Macrophages are closely related to osteoclasts and have been used previously as a model system for osteoclast survival (see, e.g., Luckman et al., 1998, “Heterocycle-containing bisphosphonates cause apoptosis and inhibit bone resorption by preventing protein prenylation: evidence from structure-activity relationships in J774 macrophages,” J. Bone Miner. Res., Vol. 13, pp. 1668-1678). The model is indicative both of effects on bone protection in diseases such as osteoporosis, osteoarthritis and rheumatoid arthritis, and of effects on inflammation since, like osteoclasts, J774 macrophages are dependent for survival on continued NFκB activation.
In vitro potency of test compounds was determined by incubation with J774 macrophages and subsequent determination of cell viability using resazurin.
Resazurin is a redox dye commonly used as an indicator of viability in cultured cells (see, e.g., Anoopkumar-Dukie, 2005, British Journal of Radiology, Vol. 78, pp. 945-947). It is non-toxic to cells and stable in culture medium, allowing continuous measurement of cell proliferation in vitro as either a kinetic or endpoint assay. The assay is based on the ability of viable, metabolically-active cells to reduce resazurin (which is blue and non-fluorescent) to resorufin and dihydroresorufin (which are red and fluorescent) using electrons from reducing species, such as nicotinamide adenine dinucleotide (NADPH) and flavin adenine dinucleotide (FADH). This transformation, from oxidised form to reduced form, can be measured either colorimetrically or fluorometrically. Insults that impair cell viability and proliferation also affects the capacity of cells to reduce resazurin, and the rate of dye reduction is directly proportional to the number of viable cells present.
For fluorescence measurements, 530-560 nm excitation and 590 nm emission wavelengths are typically used. For colorimetric measurements, absorbance at 570 nm (reduced form) and 600 nm (oxidised form) is typically measured. A simple calculation is performed to determine the relative quantities of the two species: a high ratio of resorufin (the reduced form) to resazurin (the oxidised form) is an indicator that cells are proliferating and viable. A low ratio indicates cells that are quiescent or non-viable.
J774 cells were plated at 10^4 cells per well in 100 μL αMEM (α Modified Eagle Medium) in 96-well plates and allowed to adhere overnight. The following day, test compounds were prepared as 100 mM solutions in DMSO. These stock solutions were diluted in DMSO and then diluted 1000× in culture medium (αMEM) before being added directly to the wells so as to give the desired final compound concentration. After a 72 hour incubation at 37° C./5% CO2, resazurin (Alamar Blue, Biosource International) was added to each well (1:10 v/v, 10 μL). The plate was then incubated at 37° C. for 3 hours and fluorescence was measured at 590 nm, with a 25 nm bandwidth.
The average results for each test compound were expressed as a percent (%) of the average control value reflecting cell viability. The average values across the concentrations tested were then plotted and the IC50 for was calculated by fitting the data to a 4-parameter IC50 equation using software from Grafit (Erithacus Software). Each experiment was repeated twice and the data are presented as the mean IC50 from both experiments.

[1] = tested on: TK6 human lymphoblastoid cell line; test: GreenScreen HC cytotoxicity (propidium iodide uptake); format: cell-based
Method: GreenScreen HC is a mammalian cell-based assay for measuring the genotoxicity and cytotoxicity of chemical compounds and mixtures.
Cytotoxicity is measured in the GreenScreen assay alongside genotoxicity and the results of the cytotoxicity assessment are used to normalise the genotoxicity measurements as described above.
In the GreenScreen HC assay, cell viability is assessed using a propidium iodide uptake assay. Propidium iodide is an intercalating agent and a fluorescent molecule that can be used to stain cells. It is commonly used to quantitatively assess DNA content to evaluate cell viability or DNA content in cell cycle analysis and can be used to differentiate necrotic, apoptotic and normal cells (see, e.g., Dengler et al., 1995, Anticancer Drugs, Vol. 6, No. 4, pp. 522-532). Exposure to a cytotoxic compound increases the uptake of propidium iodide, which is monitored by optical absorbance and is proportional to […]. Cytotoxic compounds are those that show an observed decrease in relative population survival below a significance threshold set at 90% compared to vehicle-treated control, at one or more test concentrations.
A dilution series of each test compound is generated in parallel in a 96-well, black microplate with an optically clear base. A standard genotoxic compound (methyl methanesulfonate, MMS) is added as an intra-plate quality control check. The plates are analysed at 24 hour and 48 hour time points using a microplate reader, which provides measurements of light absorbance and fluorescence for cells and solutions in the microplates wells.
In addition to measurements of cell viability and genotoxicity described above, the GreenScreen assay incorporates an assessment of the effects of metabolic activation in the assay, the “GreenScreen HC S9 assay”. To accomplish this, the cells are incubated both in the presence of and absence of the post-mitochondrial supernatant liver extract (known as “S9”). S9 is routinely used in genetic toxicology to supplement the test cells with mammalian phase I metabolism. To assess metabolic activation, compounds are incubated with the TK6 strain in the presence of 1% v/v S9 fraction mix for 3 hours with a subsequent 45 hour recovery time. After the recovery period, the GFP fluorescence signal and cell viability (assessed by propidium iodide uptake) are measured using a flow cytometer. Cyclophosphamide, a commonly used control in genotoxicity studies utilising metabolic activation, is used as the positive control in the assay. In the GreenScreen HC S9 assay, genotoxicity is evaluated by induction in GFP expression quantified using the mean sample fluorescence and cytotoxicity using the propidium iodide uptake assay described above. The statistically defined threshold for a positive genotoxicity result is 1.3, i.e. 30% induction over and above the baseline for the vehicle-treated control and the result is reported as positive or negative. Cytotoxic compounds are those that show an observed decrease in relative population survival below a significance threshold set at 90% compared to vehicle-treated control, at one or more test concentrations.
Stably transfected reporter cell lines were derived from the p53-competent human lymphoblastoid TK6 cell line. The reporter cell line carries an episomally replicating plasmid bearing the upstream promoter region and other regulatory sequences of the human GADD45a gene linked to a human optimised Green Fluorescent Protein (GFP) gene. The control cell line carries an identical plasmid except for the removal of 4 base pairs at the start of the EGFP gene, such that GFP is not produced. Both plasmids also carry a gene conferring resistance to hygromycin B to the cell line, allowing continued selection for plasmid presence (200 μg/mL hygromycin B; Invitrogen Corporation, Carlsbad, Calif.). […]

[2] = lowest effective concentration for loss of cell viability

SMILES	pIC50 (J774 macrophages)	Cytotoxicity, LEC, 48 h, −S9 ([1]; absence of S9 fraction) [µM]	Cytotoxicity, LEC, 48 h, +S9 ([1]; presence of S9 fraction) [µM]	Cytotoxicity, LEC, 24 h [1, 2] [µM]	Cytotoxicity, LEC, 24 h ([1]; lab scale batch tested in the range 1.3 mM to 0.3 pM) [µM]	Cytotoxicity, LEC, 24 h ([1]; mid scale batch tested in the range 164 μM to 0.003 μM) [µM]	Cytotoxicity, LEC, 48 h, +S9 ([1]; +S9, lab scale batch, 1.3 mM to 0.3 pM) [µM]	Cytotoxicity, LEC, 48 h, +S9 ([1]; +S9, mid scale batch, 164 μM to 0.003 μM) [µM]	Cytotoxicity, LEC, 48 h, −S9 ([1]; −S9, lab scale batch, 1.3 mM to 0.3 pM) [µM]	Cytotoxicity, LEC, 48 h, −S9 ([1]; −S9, mid scale batch, 164 μM to 0.003 μM) [µM]
C[C@]1(O)CC[C@H](NS(=O)(=O)c2ccc(-c3ncc(Cl)cc3Cl)cc2)CC1 [HMC-N-03-A, 4-(3,5-Dichloropyridin-2-yl)-N-((1r,4r)-4-hydroxy-4-methylcyclohexyl)benzenesulfonamide]	6.77	0.24	30	0.94	–	–	–	–	–	–
C[C@]1(O)CC[C@H](NS(=O)(=O)c2ccc(-c3ccc(F)cc3C(F)(F)F)cc2)CC1 [HMC-C-02-A, 4′-Fluoro-N-((1r,4r)-4-hydroxy-4-methylcyclohexyl)-2′-(trifluoromethyl)biphenyl-4-sulfonamide]	6.59	60	120	>1000	–	–	–	–	–	–
Cc1cc(S(=O)(=O)N[C@H]2CC[C@H](O)CC2)ccc1-c1ccc(F)cc1F [ABD735]	7.00	0.31	5	0.31	–	–	–	–	–	–
O=S(=O)(N[C@H]1CC[C@H](O)CC1)c1ccc(-c2ncc(Cl)cc2Cl)cc1 [ABD836, reference compound]	6.55	0.01	40	0.04	–	–	–	–	–	–
C[C@]1(O)CC[C@H](NS(=O)(=O)c2ccc(-c3ccc(Cl)cc3C#N)cc2)CC1 [HMC-C-01-A, 4′-Chloro-2′-cyano-N-((1r,4r)-4-hydroxy-4-methylcyclohexyl)biphenyl-4-sulfonamide]	6.89	0.12	60	0.47	–	–	–	–	–	–
C[C@]1(O)CC[C@@H](NS(=O)(=O)c2ccc(-c3ncc(F)cc3F)cc2)CC1 [HMC-N-02-B, 4-(3,5-Difluoropyridin-2-yl)-N-((1s,4s)-4-hydroxy-4-methylcyclohexyl)benzenesulfonamide]	–	0.01	10.2	0.04	–	–	–	–	–	–
C[C@]1(O)CC[C@H](NS(=O)(=O)c2ccc(-c3c(F)cc(F)cc3F)cc2)CC1 [HMC-C-03-A, 2′,4′,6′-Trifluoro-N-((1r,4r)-4-hydroxy-4-methylcyclohexyl)biphenyl-4-sulfonamide]	6.85	0.06	15	0.24	–	–	–	–	–	–
C[C@]1(O)CC[C@H](NS(=O)(=O)c2ccc(-c3ncc(F)cc3F)c(F)c2)CC1 [HMC-N-01-A, 4-(3,5-Difluoropyridin-2-yl)-3-fluoro-N-((1r,4r)-4-hydroxy-4-methylcyclohexyl)benzenesulfonamide]	6.89	0.12	60	0.94	–	–	–	–	–	–
C[C@]1(O)CC[C@@H](NS(=O)(=O)c2ccc(-c3ccc(Cl)cc3C#N)cc2)CC1 [HMC-C-01-B, 4′-Chloro-2′-cyano-N-((1s,4s)-4-hydroxy-4-methylcyclohexyl)-[1,1′-biphenyl]-4-sulfonamide]	–	0.005	4.82	0.08	–	–	–	–	–	–
C[C@]1(O)CC[C@H](NS(=O)(=O)c2ccc(-c3ncc(Cl)cc3Cl)c(F)c2)CC1 [HMC-N-04-A, 4-(3,5-Dichloropyridin-2-yl)-3-fluoro-N-((1r,4r)-4-hydroxy-4-methylcyclohexyl)benzenesulfonamide]	6.74	0.12	30	0.47	–	–	–	–	–	–
C[C@]1(O)CC[C@@H](NS(=O)(=O)c2ccc(-c3ccc(F)cc3F)cc2)CC1 [ABD899, reference compound]	7.10	–	–	–	<0.001	0.64	0.32	81.9	<0.001	0.08
C[C@]1(O)CC[C@@H](NS(=O)(=O)c2ccc(-c3ncc(F)cc3F)c(F)c2)CC1 [HMC-N-01-B, 4-(3,5-Difluoropyridin-2-yl)-3-fluoro-N-((1s,4s)-4-hydroxy-4-methylcyclohexyl)benzenesulfonamide]	–	0.05	5.85	0.01	–	–	–	–	–	–
C[C@]1(O)CC[C@@H](NS(=O)(=O)c2ccc(-c3c(F)cc(F)cc3F)cc2)CC1 [HMC-C-03-B, 2′,4′,6′-Trifluoro-N-((1s,4s)-4-hydroxy-4-methylcyclohexyl)-[1,1′-biphenyl]-4-sulfonamide]	–	0.08	10.8	0.17	–	–	–	–	–	–
C[C@]1(O)CC[C@H](NS(=O)(=O)c2ccc(-c3ncc(F)cc3F)cc2)CC1 [HMC-N-02-A, 4-(3,5-Difluoropyridin-2-yl)-N-((1r,4r)-4-hydroxy-4-methylcyclohexyl)benzenesulfonamide]	6.74	0.47	120	0.94	–	–	–	–	–	–
Cc1cc(S(=O)(=O)NC2CCC(C)(O)CC2)ccc1-c1ccc(F)cc1F (single isomer, unassigned) [REF001, reference compound]	6.92	0.039	0.63	0.039	–	–	–	–	–	–
